Source: US10822349B2, “Macrocyclic purines for the treatment of viral infections” (JANSSEN SCIENCES IRELAND UNLIMITED COMPANY, priority 2012, dated 2020)
Read-outs that look alike come from different tables or passages of the source.

Key:
[1] = rcm bond
[2] = system: interferon production in human PBMC; assay: Interferon production in human PBMC, read out on HEK-ISRE-luc reporter cells; assay type: cell-based; details: Homo sapiens, PBMC, 24 h, lowest effective concentration, PBMC supernatant after overnight incubation transferred to HEK-ISRE-luc cells, read-out: PBMC HEK-ISRE-luc (LEC; μM)
Method: Activation of human TLR7 results in robust production of interferon by plasmacytoid dendritic cells present in human blood. The potential of compounds to induce interferon was evaluated by determination of interferon in the conditioned media from peripheral blood mononuclear cells (PBMC). The presence of interferon in the samples was determined, using an interferon reporter cell line stably expressing an interferon-stimulated responsive elements (ISRE)-luc reporter construct. The ISRE element with sequence GAAACTGAAACT (SEQ ID: 1) is highly responsive to the STAT1-STAT2-IRF9 transcription factor, which becomes activated upon binding of IFN-I to the IFN receptor. Briefly, PBMCs were prepared from buffy coats of at least two donors using a standard Ficoll centrifugation protocol. Isolated PBMCs were resuspended in RPMI medium supplemented with 10% human AB serum and 2×10^5 cells/well were dispensed into 384-well plates containing compounds (70 μL total volume). After overnight incubation of the PBMCs with the compounds, 10 μL of supernatant was transferred to 384-well plates containing 5×10^3 HEK-ISRE-luc cells/well in 30 μL (plated the day before). Following 24 hours of incubation, activation of the ISRE elements was measured by assaying luciferase activity using 40 μL/well Steady Lite Plus substrate (Perkin Elmer) and measured with ViewLux ultraHTS microplate imager (Perkin Elmer). The stimulating activity of each compound on the HEK-ISRE-luc cells was reported as LEC. The LEC in turn indicates the degree of ISRE activation on transfer of a defined amount of PBMC culture medium. Recombinant interferon alfa-2a (Roferon-A) was used as a standard control compound.

human TLR7 = target: T1, human TLR7 (Homo sapiens, UniProt Q9NYK1); assay: TLR7 cellular reporter assay (HEK293 TLR7-NFκB-luc); assay type: cell-based; details: lowest effective concentration; HEK293 transiently transfected with TLR7 and NFκB-luc; 6 hours incubation
T1 construct: expressed in transfected cells; host or cells: HEK293
T1 sequence (Q9NYK1 27-1049): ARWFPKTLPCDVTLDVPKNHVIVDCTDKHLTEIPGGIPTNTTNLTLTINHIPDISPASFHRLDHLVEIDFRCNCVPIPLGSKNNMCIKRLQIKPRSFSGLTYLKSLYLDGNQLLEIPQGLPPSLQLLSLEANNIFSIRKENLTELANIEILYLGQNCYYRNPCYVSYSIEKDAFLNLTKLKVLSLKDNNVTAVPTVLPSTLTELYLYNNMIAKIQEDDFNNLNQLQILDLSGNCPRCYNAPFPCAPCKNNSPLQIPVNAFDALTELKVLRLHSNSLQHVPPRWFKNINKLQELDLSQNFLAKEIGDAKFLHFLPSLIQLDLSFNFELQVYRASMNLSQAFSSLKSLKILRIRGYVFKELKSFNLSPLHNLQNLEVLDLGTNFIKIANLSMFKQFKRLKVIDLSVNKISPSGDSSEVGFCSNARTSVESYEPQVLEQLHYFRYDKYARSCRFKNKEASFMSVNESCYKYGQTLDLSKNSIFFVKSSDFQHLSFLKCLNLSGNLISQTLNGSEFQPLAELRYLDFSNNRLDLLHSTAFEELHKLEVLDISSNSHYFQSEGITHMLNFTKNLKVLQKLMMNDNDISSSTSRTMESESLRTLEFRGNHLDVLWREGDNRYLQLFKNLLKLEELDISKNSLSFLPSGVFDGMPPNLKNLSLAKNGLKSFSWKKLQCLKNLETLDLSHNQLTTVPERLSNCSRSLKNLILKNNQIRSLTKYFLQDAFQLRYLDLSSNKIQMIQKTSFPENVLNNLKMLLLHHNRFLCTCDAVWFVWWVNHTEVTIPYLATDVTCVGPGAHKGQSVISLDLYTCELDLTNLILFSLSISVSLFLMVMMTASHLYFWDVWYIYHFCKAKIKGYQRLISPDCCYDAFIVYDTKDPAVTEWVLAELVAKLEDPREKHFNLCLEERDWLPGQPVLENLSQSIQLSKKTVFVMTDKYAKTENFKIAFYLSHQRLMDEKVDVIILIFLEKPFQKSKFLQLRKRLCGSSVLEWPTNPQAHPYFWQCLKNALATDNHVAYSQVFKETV
Method: The ability of compounds to activate human TLR7 and TLR8 was assessed in a cellular reporter assay using HEK293 cells transiently transfected with a TLR7 or TLR8 expression vector and NFκB-luc reporter construct. Briefly, HEK293 cells were grown in culture medium (DMEM supplemented with 10% FCS and 2 mM Glutamine). For transfection of cells in 10 cm dishes, cells were detached with Trypsin-EDTA, transfected with a mix of CMV-TLR7 or TLR8 plasmid (750 ng), NFκB-luc plasmid (375 ng) and a transfection reagent and incubated 48 hours at 37° C. in a humidified 5% CO2 atmosphere. Transfected cells were then detached with Trypsin-EDTA, washed in PBS and resuspended in medium to a density of 1.67×10^5 cells/mL. Thirty microliters of cells were then dispensed into each well in 384-well plates, where 10 μL of compound in 4% DMSO was already present. Following 6 hours incubation at 37° C., 5% CO2, the luciferase activity was determined by adding 15 μl of Steady Lite Plus substrate (Perkin Elmer) to each well and readout performed on a ViewLux ultraHTS microplate imager (Perkin Elmer). Dose response curves were generated from measurements performed in quadruplicates. Lowest effective concentrations (LEC) values, defined as the concentration that induces an effect which is at least two fold above the standard deviation of the assay, were determined for each compound.

Compound `CCOC(=O)N1Cc2cccc(c2)CC=CCCC(CO[Si](C)(C)C(C)(C)C)Nc2nc(N)c([N+](=O)[O-])c1n2` (centres unmarked) has a ring closure, yield of all isomers ([1]; from C=CCCC(CO[Si](C)(C)C(C)(C)C)Nc1nc(N)c([N+](=O)[O-])c(N(Cc2cccc(CC=C)c2)C(=O)OCC)n1, Grubbs catalyst 2nd generation, CH2Cl2, 7.83 mM, 25.0 °C, 24.0 h) of 70%.
`CCOC(=O)N1CCc2cccc(c2)OCC=CCOc2nc(N)c([N+](=O)[O-])c1n2` gave a ring closure, yield of all isomers ([1]; from C=CCOc1cccc(CCN(C(=O)OCC)c2nc(OCC=C)nc(N)c2[N+](=O)[O-])c1, Grubbs 2nd generation, dichloromethane, 5.2 mM, 25.0 °C, 36.0 h) of 56.5%.
`CCOc1nc2c(N)nc3nc2n1Cc1cccc(c1)CC=CCCCn1ccnc1-3` showed a ring closure, yield of all isomers ([1]; from C=CCCCn1ccnc1-c1nc(N)c2nc(OCC)n(Cc3cccc(CC=C)c3)c2n1, Grubbs catalyst 2nd generation, CH2Cl2, 3.76 mM, 25.0 °C, 24.0 h) of 5%.
For `COc1nc2c(N)nc3nc2n1Cc1cccc(c1)CC=CCCO3`, the ring closure, yield of all isomers ([1]; from C=CCCOc1nc(N)c2nc(OC)n(Cc3cccc(CC=C)c3)c2n1, Grubbs catalyst 2nd generation, CH2Cl2, 3.42 mM, 24.0 h) was 23%.
Compound `CCOC(=O)N1Cc2ncccc2OCC=CCCOc2nc(N)c([N+](=O)[O-])c1n2` has a ring closure, yield of all isomers ([1]; from C=CCCOc1nc(N)c([N+](=O)[O-])c(N(Cc2ncccc2OCC=C)C(=O)OCC)n1, Hoveyda-Grubbs 2nd generation (with chlorodicyclohexylborane), 1,2-dichloroethane, 3.74 mM, 80.0 °C, 1.0 h) of 70%.
In the case of `CCOC(=O)N1Cc2ncccc2OCCC=CCOc2nc(N=P(c3ccccc3)(c3ccccc3)c3ccccc3)c([N+](=O)[O-])c1n2`, the ring closure, yield of all isomers ([1]; from C=CCCOc1cccnc1CN(C(=O)OCC)c1nc(OCC=C)nc(N=P(c2ccccc2)(c2ccccc2)c2ccccc2)c1[N+](=O)[O-], Hoveyda-Grubbs 2nd generation (with chlorodicyclohexylborane), 1,2-dichloroethane, 2.98 mM, 120.0 °C, 31.0 h) was 54%.
Compound `CCOC(=O)N1Cc2ccc(F)c(c2)OCC=CCOc2nc(N)c([N+](=O)[O-])c1n2` has a ring closure, yield of all isomers ([1]; from C=CCOc1nc(N)c([N+](=O)[O-])c(N(Cc2ccc(F)c(OCC=C)c2)C(=O)OCC)n1, Grubbs-Hoveyda catalyst 2nd generation (with chlorodicyclohexylborane), 1,2-dichloroethane, 5.07 mM, 120.0 °C, 3.0 h) of 58%.
`CCOC(=O)N1Cc2cccc(c2)CC=CCCOc2nc(N)c([N+](=O)[O-])c1n2` gave a ring closure, yield of all isomers ([1]; from C=CCCOc1nc(N)c([N+](=O)[O-])c(N(Cc2cccc(CC=C)c2)C(=O)OCC)n1, Grubbs catalyst 2nd generation, CH2Cl2, 3.14 mM, 25.0 °C, 16.0 h) of 27.4%.
`CCOC(=O)N1Cc2cc(OC)cc(c2)OCC=CCOc2nc(N)c([N+](=O)[O-])c1n2` gave a ring closure, yield of all isomers ([1]; from C=CCOc1cc(CN(C(=O)OCC)c2nc(OCC=C)nc(N)c2[N+](=O)[O-])cc(OC)c1, Grubbs-Hoveyda catalyst 2nd generation (with chlorodicyclohexylborane), 1,2-dichloroethane, 3.63 mM, 120.0 °C, 18.0 h) of 27%.
With `Nc1nc2nc3c1ncn3Cc1ncccc1OCC=CCCO2` the ring closure, yield of all isomers ([1]; from C=CCCOc1nc(N)c2ncn(Cc3ncccc3OCC=C)c2n1, Grubbs-Hoveyda catalyst 2nd generation (with chlorodicyclohexylborane), 1,2-dichloroethane, 3.04 mM, 120.0 °C, 10.0 h) was 5%.
Compound `CCOC(=O)N1Cc2ccc(OC)c(c2)OCC=CCOc2nc(N)c([N+](=O)[O-])c1n2` has a ring closure, yield of all isomers ([1]; from C=CCOc1nc(N)c([N+](=O)[O-])c(N(Cc2ccc(OC)c(OCC=C)c2)C(=O)OCC)n1, Grubbs catalyst 2nd generation, CH2Cl2, 3.63 mM, 25.0 °C, 66.0 h) of 7.6%.
`CCOC(=O)N1CCc2cccc(c2)OCC=CCCOc2nc(N)c([N+](=O)[O-])c1n2` showed a ring closure, yield of all isomers ([1]; from C=CCCOc1nc(N)c([N+](=O)[O-])c(N(CCc2cccc(OCC=C)c2)C(=O)OCC)n1, Grubbs catalyst 2nd generation, CH2Cl2, 5.2 mM, 25.0 °C, 7.0 h) of 52%.
Work on `CCOC(=O)N1Cc2cccc(c2)OCC=CCOc2nc(N)c([N+](=O)[O-])c1n2` yielded a ring closure, yield of all isomers ([1]; from C=CCOc1cccc(CN(C(=O)OCC)c2nc(OCC=C)nc(N)c2[N+](=O)[O-])c1, Hoveyda-Grubbs 2nd generation (with chlorodicyclohexylborane), 1,2-dichloroethane, 4.22 mM, 120.0 °C, 4.0 h) of 36%.
With `Nc1nc2nc3c1nc(O)n3Cc1cccc(c1)OC/C=C/CCC(CO)N2` (centres unmarked) [Compound 18] the minimal effective concentration [2] was 0.056 µM and the “HEK293 TLR7-NFκB-luc (LEC; μM)” value (human TLR7) was 0.82 µM.
For `COc1ccc2cc1C/C=C/CCOc1nc(N)c3nc(O)n(c3n1)C2` [Compound 68], the minimal effective concentration [2] was 0.0057 µM and the “HEK293 TLR7-NFκB-luc (LEC; μM)” value (human TLR7) was 0.006 µM.
Work on `Nc1nc2nc3c1ncn3Cc1cccc(c1)CC=CCCO2` yielded a ring closure, yield of all isomers ([1]; from C=CCCOc1nc(N)c2ncn(Cc3cccc(CC=C)c3)c2n1, Hoveyda-Grubbs 2nd generation (with chlorodicyclohexylborane), 1,2-dichloroethane, 2.98 mM, 120.0 °C, 23.0 h) of 34%.
For `Nc1nc2nc3c1nc(O)n3Cc1cccc(c1)OCC(=O)NCCCO2` [Compound 80], the minimal effective concentration [2] was 0.087 µM and the “HEK293 TLR7-NFκB-luc (LEC; μM)” value (human TLR7) was 0.041 µM.
Work on `CCOC(=O)N1Cc2cccc(c2)CC=CCCCOc2nc(N)c([N+](=O)[O-])c1n2` yielded a ring closure, yield of all isomers ([1]; from C=CCCCOc1nc(N)c([N+](=O)[O-])c(N(Cc2cccc(CC=C)c2)C(=O)OCC)n1, Grubbs catalyst 2nd generation, CH2Cl2, 3.13 mM, 25.0 °C, 2.0 h) of 73%.
For `Nc1nc2nc3c1nc(O)n3Cc1cccc(c1)OCCCCN2` [Compound 8], the minimal effective concentration [2] was 0.68 µM and the “HEK293 TLR7-NFκB-luc (LEC; μM)” value (human TLR7) was 2.42 µM.
